Source: patent US5866588A, “Imidazopyridine derivatives” (British Biotech Pharmaceuticals Ltd., priority 1995, dated 1999)
pIC50: −log10 of the molar value.

Key:
[1] = target: T1, histamine-1 receptors on Hela-S3 cells (Homo sapiens, UniProt P35367); assay: Inhibition of [^3 H]-Pyrilamine Binding to Histamine-1 Receptors on Hela-S3 Cells; conditions: 0.5 h; 1 μM test compound; [^3 H]-pyrilamine remaining specifically bound; 37° C., 30 minutes; read-out: % Specific Binding at 1 μM
T1 construct: histamine-1 receptors on Hela-S3 cells (American Type Culture Collection); host or cells: HeLa-S3 cells (intact cell suspension)
Protocol: Inhibition of [^3 H]-Pyrilamine Binding to Histamine-1 Receptors on Hela-S3 Cells
The inhibition of [^3 H]-pyrilamine binding to histamine-1 receptors on Hela-S3 cells (American Type Culture Collection) was determined by isotopic labelling and filtration techniques. A suspension of the cells in buffer (25 ml, 0.5% Bovine Serum Albumin, 0.1% sodium azide, phosphate buffered saline (PBS)) was centrifuged at 1000 rpm for 5 minutes in a JOUAN CR 422 centrifuge, collected, resuspended in buffer (25 ml) and spun again. The cells were counted using a haemocytometer and resuspended in buffer to provide a final concentration of 4.5×10^6 cells ml^-1. A portion of the Hela-S3 cell suspension (1 ml) was added to each assay tube containing 25 μl of vehicle (50% DMSO/buffer) or 25 μl of test compound solution (dissolved in DMSO and diluted with sufficient PBS to give a final test concentration of 1 μM) and 25 μl of [^3 H]-pyrilamine (supplied by Amersham International and diluted with PBS to 3 nM). The tubes were mixed, incubated at 37° C. for 30 minutes and then spun at 4° C. at 2000 rpm for 2 minutes. The supernatant was removed and the cells resuspended in buffer (repeated ×2). The cells were suspended in 300 μl of a 2:1 solution of 1M sodium hydroxide and 1% sodium dodecyl sulphate. The tubes were left ovemight before the contents were tranferred to a scintillation vial, treated with 10 ml, OPTIPHASE MP scintillation fluid (OPTIPHASE MP is a trade mark) and the radioactivity counted in a scintillation counter. Non-displacable binding (NDB) was determined using Astemizole (5×10^-5 M) in place of test compounds. Defining the counts for total binding from the vehicle control sample as "TB" and the counts for total binding with antogonist as "TBA" the percentage specific binding (% SB) can be determined from the following equation.

[2] = test system: PAF-Induced Platelet Aggregation; assay: Inhibition of PAF-Induced Platelet Aggregation; assay type: cell-based, rabbit (New Zealand White); conditions: Oryctolagus cuniculus; rabbit platelet-rich plasma, PAF 100 ngml^-1
Protocol: Inhibition of PAF-Induced Platelet Aggregation
Male New Zealand White rabbits (3.0-3.5 kg) were anaesthetised by intravenous administration of sodium pentobarbitone, 18 mg.ml^-1, via a marginal ear vein. The trachea was exposed and connected to a respiratory pump (Harvard UK) to provide artificial ventilation. A carotid artery was exposed and cannulated and the animal was exsanguinated. Whole blood was collected in a syringe containing tri-sodium citrate (3.8% w/v) to a ratio of 1 part citrate:9 parts blood.
Collected blood was centrifuged at 180×g for 15 minutes at room temperature (21° C.) to prepare platelet-rich plasma (PRP). The remaining blood was then centrifuged at 1800×g for 10 minutes at room temperature to obtain platelet poor plasma (PPP).
Platelet count of the PRP was measured using a Technicon H1 blood cell differential analyser (Bayer Diagnostics UK) and adjusted with PPP to obtain a final platelet count of 500,000 platelets per μl of plasma, this being the normal physiological platelet count for rabbits. Corrected PRP was left to equilibrate at room temperature for 30 minutes before use.
Aggregation studies were carried out using a 4-channel aggregometer (PAP-4C, BioData USA) as follows: 400 μl aliquots of PRP were placed in siliconised cuvettes and incubated to 37° C. for 1 to 2 minutes in the heating block of the aggregometer. Baseline (100% aggregation) was set up using PPP (500 μl in a siliconised cuvette). The PRP was placed into a measuring well of the aggregometer, and a stirrer bar was added. The sample was stirred at 1000 rpm. The machine was activated to set the 0% aggregation level. Test compound or vehicle (50 μl) was added to the PRP, where any effects on the baseline was noted. PAF (100 ngml^-1 as 50 μl aliqout) was added to the PRP 3 minutes after test compound or vehicle. Aggregation was measured for a further 4 minutes after PAF addition and the maximum aggregation over the 4 minutes was recorded.
The investigation of different concentrations of test compound was performed in triplicate. Data were expressed as […] of the sample and test compound data were compared to vehicle data to obtain % inhibition of the PAF-induced aggregation from which IC50 values could be determined.
PAF was made up in sterile saline (NaCl 0.9% w/v) containing BSA (0.25% w/v) from an initial stock solution (10 mgml^-1 in EtOH). Test compounds were made up as 1×10^-3 M stock solutions in sterile saline containing molar equivalents of 1N HCl (v/v) or in DMSO.
In the results which follow, a comparison compound A was included. Compound A was prepared as described in EP-A-260613 (G. D. Searle), but is not part of the present invention. As appears from the results of the comparison, compounds of this invention, all of which incorporate a fragment capable of H1 antagonist activity, are observed to show improved PAF antagonist activity over compound A.

T1 sequence (P35367 whole entry): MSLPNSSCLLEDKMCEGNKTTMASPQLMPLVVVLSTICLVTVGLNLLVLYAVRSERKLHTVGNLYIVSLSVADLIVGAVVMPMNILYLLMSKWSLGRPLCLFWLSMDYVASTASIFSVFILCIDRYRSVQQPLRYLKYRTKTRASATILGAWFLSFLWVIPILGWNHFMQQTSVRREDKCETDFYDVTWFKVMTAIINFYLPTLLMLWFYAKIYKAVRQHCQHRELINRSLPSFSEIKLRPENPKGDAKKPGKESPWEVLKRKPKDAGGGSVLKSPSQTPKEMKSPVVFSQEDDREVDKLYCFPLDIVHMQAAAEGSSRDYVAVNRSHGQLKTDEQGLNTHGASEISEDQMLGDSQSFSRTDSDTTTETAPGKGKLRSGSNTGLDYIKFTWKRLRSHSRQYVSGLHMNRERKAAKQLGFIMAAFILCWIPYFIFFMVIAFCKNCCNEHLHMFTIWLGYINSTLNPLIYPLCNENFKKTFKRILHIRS

`CCC(C)N(C/C=C/c1cccc(/C(=C/CN2CCCC2)c2ccc(C)cc2)n1)C(=O)c1ccc(Cn2c(C)nc3cnccc32)cc1` (racemic) [Example 9, N-(R,S) sec-Butyl-4-(1H-2-methylimidazo[4,5-c]pyridin-1-ylmethyl)-N-(E)-{3-[6-(3-pyrrolidin-1-yl-1-{4-tolyl}-prop-1E-enyl)-pyridin-2-yl]-prop-2-enyl}-benzamide] gave an activity at 1 µM [1] of 63% and a pIC50 [2] of 7.37.
Work on `CN(C(=O)c1ccc(Cn2cnc3cnccc32)cc1)C1CCCCC1` [Compound A, reference compound] yielded a pIC50 [2] of 4.13.
`Cc1ccc(/C(=C\CN2CCCC2)c2cccc(/C=C/COC(=O)c3ccc(Cn4c(C)nc5cnccc54)cc3)n2)cc1` [Example 1, 4-(1H-2-Methylimidazo[4,5-c]pyridin-1-ylmethyl)benzoic acid 3-[6-(3-pyrrolidin-1-yl-1-{4-tolyl}-prop-1E-enyl)-pyridin-2-yl]prop-2E-enyl ester] gave an activity at 1 µM [1] of 16% and a pIC50 [2] of 5.68.
`Cc1ccc(/C(=C\CN2CCCC2)c2cccc(CCCOC(=O)c3ccc(Cn4c(C)nc5cnccc54)cc3)n2)cc1` [Example 2, 4-(1H-2-Methylimidazo[4,5-c]pyridin-1-ylmethyl)benzoic acid 3-[6-(3-pyrrolidin-1-yl-1-{4-tolyl}-prop-1E-enyl)-pyridin-2-yl]propyl ester] gave an activity at 1 µM [1] of 15% and a pIC50 [2] of 6.27.
`Cc1ccc(/C(=C\CN2CCCC2)c2cccc(/C=C/CNC(=O)c3ccc(Cn4c(C)nc5cnccc54)cc3)n2)cc1` [Example 5, 4-(1H-2-Methylimidazo[4,5-c]pyridin-1-ylmethyl)-N-{3-[6-(3-pyrrolidino-1-{4-tolyl}-prop-1E-enyl)-pyridin-2-yl]-prop-2E-enyl}-benzamide] was tested, and the activity at 1 µM [1] was 16% and the pIC50 [2] was 5.66.
`Cc1ccc(/C(=C\CN2CCCC2)c2cccc(/C=C/CN(CCC(C)C)C(=O)c3ccc(Cn4c(C)nc5cnccc54)cc3)n2)cc1` [Example 6, N-(3-Methyl-but-1-yl)-4-(1H-2-methylimidazo[4,5-c]pyridin-1-ylmethyl)-N-{3-[6-(3-pyrrolidin-1-yl-1-{4-tolyl}-prop-1E-enyl)-pyridin-2-yl]-prop-2E-enyl}-benzamide] gave an activity at 1 µM [1] of 29% and a pIC50 [2] of 6.48.
Work on `Cc1ccc(/C(=C\CN2CCCC2)c2cccc(/C=C/CN(CC(C)C)C(=O)c3ccc(Cn4c(C)nc5cnccc54)cc3)n2)cc1` [Example 7, N-iso-Butyl-4-(1H-2-methylimidazo[4,5-c]pyridin-1-ylmethyl)-N-{3-[6-(3-pyrrolidin-1-yl-1-{4-tolyl}-prop-1E-enyl)-pyridin-2-yl]-prop-2E-enyl}-benzamide] yielded an activity at 1 µM [1] of 40% and a pIC50 [2] of 6.88.
Molecule `Cc1ccc(/C(=C\CN2CCCC2)c2cccc(/C=C/CN(C(=O)c3ccc(Cn4c(C)nc5cnccc54)cc3)C3CCCC3)n2)cc1` [Example 8, N-Cyclopentyl-4-(1H-2-methylimidazo[4,5-c]pyridin-1-ylmethyl)-N-{3-[6-(3-pyrrolidin-1-yl-1-{4-tolyl}-prop-1E-enyl)-pyridin-2-yl]-prop-2E-enyl}-benzamide] has an activity at 1 µM [1] of 34% and a pIC50 [2] of 7.04.
For `Cc1ccc(/C(=C\CN2CCCC2)c2cccc(/C=C/CN(C(=O)c3ccc(Cn4c(C)nc5cnccc54)cc3)C(C)(C)C)n2)cc1` [Example 10, N-tert-Butyl-4-(1H-2-methylimidazo[4,5-c]pyridin-1-ylmethyl)-N-{3-[6-(3-pyrrolidin-1-yl-1-{4-tolyl}-prop-1E-enyl)-pyridin-2-yl]-prop-2E-enyl}-benzamide], the activity at 1 µM [1] was 62% and the pIC50 [2] was 5.70.
`Cc1ccc(/C(=C\CN2CCCC2)c2cccc(/C=C/CN(C(=O)c3ccc(Cn4c(C)nc5cnccc54)cc3)C3CC(C)CC(C)C3)n2)cc1` (centres unmarked) [Example 11, N-3,5-Dimethylcyclohexyl-4-(1H-2-methylimidazo[4,5-c]pyridin-1-ylmethyl)-N-{3-[6-(3-pyrrolidin-1-yl-1-{4-tolyl}-prop-1E-enyl)-pyridin-2-yl]-prop-2E-enyl)-benzamide] showed an activity at 1 µM [1] of 60% and a pIC50 [2] of 6.75.
For `Cc1ccc(/C(=C\CN2CCCC2)c2cccc(/C=C/CN(C(=O)c3ccc(Cn4c(C)nc5cnccc54)cc3)C(C)C)n2)cc1` [Example 12, N-iso-Propyl-4-(1H-2-methylimidazo[4,5-c]pyridin-1-ylmethyl)-N-{3-[6-(3-pyrrolidin-1-yl-1-{4-tolyl}-prop-1E-enyl)-pyridin-2-yl]-prop-2E-enyl)-benzamide], the activity at 1 µM [1] was 64% and the pIC50 [2] was 7.24.
`Cc1ccc(/C(=C\CN2CCCC2)c2cccc(CCCN(C(=O)c3ccc(Cn4c(C)nc5cnccc54)cc3)C3CCCCC3)n2)cc1` [Example 17, N-Cyclohexyl-4-(1H-2-methylimidazo[4,5-c]pyridin-1-ylmethyl)-N-{3-[6-(3-pyrrolidin-1-yl-1-{4-tolyl}-prop-1E-enyl)-pyridin-2-yl]-propyl}-benzamide] gave an activity at 1 µM [1] of 58% and a pIC50 [2] of 6.50.
Work on `CCCCN(C/C=C/c1cccc(/C(=C/CN2CCCC2)c2ccc(C)cc2)n1)C(=O)c1ccc(Cn2c(C)nc3cnccc32)cc1` [Example 22, N-Butyl-4-(1H-2-methylimidazo[4,5-c]pyridin-1-ylmethyl)-N-{3-[6-(3-pyrrolidin-1-yl-1-{4-tolyl}-prop-1E-enyl)-pyridin-2-yl]-prop-2E-enyl}-benzamide] yielded an activity at 1 µM [1] of 31% and a pIC50 [2] of 7.21.
Work on `Cc1ccc(/C(=C\CN2CCCC2)c2cccc(/C=C/CN(C)C(=O)c3ccc(-n4c(C)nc5cnccc54)cc3)n2)cc1` [Example 26, N-Methyl-4-(1H-2-methylimidazo[4,5-c]pyridin-1-yl)-N-{3-[6-(3-pyrrolidin-1-yl-1-{4-tolyl}-prop-1E-enyl)-pyridin-2-yl]-prop-2E-enyl}-benzamide] yielded an activity at 1 µM [1] of 26%.
